The source of these data is patent publication US12534450B2, “Methods and compositions for targeting PD-L1” (Aligos Therapeutics, Inc., priority 2021, dated 2026).

The subject of one assay is PD-1/PD-L1 interaction. Nature of the assay: PD-1/PD-L1 NFAT Reporter Assay (co-culture of Jurkat T cells overexpressing PD-1 and PD-L1 expressing CHO cells). The format is cell-based. The settings on record: co-culture 6 hrs at 37° C., NFAT-mediated luciferase activity. The essentials:
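Compounds added to CHO cells expressing surface anti-CD3 and PD-L1, then Jurkat cells with PD-1 and NFAT-driven luciferase seeded on top; co-culture 6 hrs at 37° C. Luminescence read after ONE-Glo addition, EC50 from dose-response fit.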
In general terms: A reporter such as luciferase makes a cellular process visible.

For a further assay, the target named is PD-1/PD-L1 PPI (Homo sapiens, UniProt Q9NZQ7). The assay is described as follows: PDL1/PD1 Binding Assay. The settings on record: PDL1-6×His 0.3 nM, PD1-Fc-Avi-Biotin 2.5 nM, Acceptor/Donor beads, Envision reader. The gist of the method: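 AlphaScreen competition: compound (1% DMSO) preincubated 30 min RT with PDL1-6×His (0.3 nM), then PD1-Fc-Avi-Biotin (2.5 nM) 30 min; anti-His acceptor and streptavidin donor beads (20 ug/mL each) added, 1 h each, dark up to overnight. Buffer 25 mM Hepes pH 7.4, 150 mM NaCl. IC50 by four-parameter fit.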
PD-1/PD-L1 PPI, sequence (Q9NZQ7 19-238 limits assumed): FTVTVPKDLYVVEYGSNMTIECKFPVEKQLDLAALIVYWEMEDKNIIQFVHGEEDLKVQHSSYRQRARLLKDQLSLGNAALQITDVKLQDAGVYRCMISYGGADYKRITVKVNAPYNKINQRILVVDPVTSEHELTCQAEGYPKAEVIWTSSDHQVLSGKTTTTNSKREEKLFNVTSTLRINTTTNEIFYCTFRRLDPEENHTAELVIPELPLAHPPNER

A value given as a limit tells only on which side of the number the result lay.

A word on the EC50: it is the concentration that produces a half-maximal response. Low values mean a more potent agent, high ones a less potent agent. A word on the IC50: it is the concentration that gives 50% inhibition. A low value points to higher potency. As for `COc1nc(-c2cccc(-c3cccc(NC(=O)c4cn(C)c(=O)n(C)c4=O)c3Cl)c2Cl)cc2c1C(N1CC3(CNC(=O)C3)C1)CC2` (single isomer, unassigned) [Compound A-130], the concentration giving a half-maximal response (EC50) in the assay with PD-1/PD-L1 interaction (Homo sapiens, Jurkat, 6 h) is 0.01 to 0.1 µM. The same compound registered an IC50 on PD-1/PD-L1 PPI of no more than 0.01 µM.
`COc1nc(-c2cccc(-c3cccc(NC(=O)c4cn(C)c(=O)n(C)c4=O)c3C)c2Cl)cc2c1[C@@H](N1CC3(CNC(=O)C3)C1)CC2` (single isomer, unassigned) [Compound A-131] displayed a concentration giving a half-maximal response (EC50) with PD-1/PD-L1 interaction of no more than 0.01 µM. On PD-1/PD-L1 PPI, this compound had a half-maximal inhibitory concentration (IC50) of no more than 0.01 µM.
Regarding `COc1nc(-c2cccc(-c3cccc(NC(=O)c4cn(C)c(=O)n(C)c4=O)c3C)c2Cl)cc2c1[C@@H](N1CC3(CNC(=O)C3)C1)CC2` (single isomer, unassigned) [Compound A-132], the EC50 with PD-1/PD-L1 interaction fell in the range of 0.1 to 1 µM. Besides, the 50% inhibitory concentration (IC50) at PD-1/PD-L1 PPI is no more than 0.01 µM.
The compound `COc1nc(-c2cccc(-c3cccc(NC(=O)c4cn(C)c(=O)n(C)c4=O)c3Cl)c2Cl)cc2c1[C@@H](N1CC3(COCC(=O)N3)C1)CC2` (single isomer, unassigned) [Compound A-133] displayed an EC50 in the assay on PD-1/PD-L1 interaction (Homo sapiens, Jurkat, 6 h) of 0.1 to 1 µM. Further, the IC50 at PD-1/PD-L1 PPI was 0.01 to 0.1 µM.
With `COc1nc(-c2cccc(-c3cccc(NC(=O)c4cn(C)c(=O)n(C)c4=O)c3Cl)c2Cl)cc2c1[C@H](N1CC3(COCC(=O)N3)C1)CC2` (single isomer, unassigned) [Compound A-134], in the assay with PD-1/PD-L1 interaction (Homo sapiens, Jurkat, 6 h), the 50% effective concentration (EC50) was no more than 0.01 µM. In addition, the 50% inhibitory concentration (IC50) at PD-1/PD-L1 PPI was no more than 0.01 µM.
In the assay on PD-1/PD-L1 interaction (Homo sapiens, Jurkat, 6 h), `COc1nc(-c2cccc(-c3cccc(NC(=O)c4cn(C)c(=O)n(C)c4=O)c3Cl)c2Cl)cc2c1[C@@H](NC[C@@H]1CNC(=O)C1)CC2` (single isomer, unassigned) [Compound A-135] gave an EC50 of 0.1 to 1 µM. This compound returned a half-maximal inhibitory concentration (IC50) on PD-1/PD-L1 PPI of no more than 0.01 µM.
Taken in the same sequence, the figures for `COc1nc(-c2cccc(-c3cccc(NC(=O)c4cn(C)c(=O)n(C)c4=O)c3Cl)c2Cl)cc2c1[C@H](NC[C@@H]1CNC(=O)C1)CC2` (single isomer, unassigned) [Compound A-136] were no more than 0.01 µM and no more than 0.01 µM.
Taken in the same sequence, the figures for `COc1nc(-c2cccc(-c3cccc(NC(=O)c4cn(C)c(=O)n(C)c4=O)c3C)c2Cl)cc2c1[C@@H](NC[C@@H]1CNC(=O)C1)CC2` (single isomer, unassigned) [Compound A-137] were 1 to 10 µM and no more than 0.01 µM.
Take `COc1nc(-c2cccc(-c3cccc(NC(=O)c4ccnn(C)c4=O)c3Cl)c2Cl)cc2c1C(N1CC(C(=O)O)C1)CC2` (single isomer, unassigned) [Compound J-1]: the EC50 in the assay with PD-1/PD-L1 interaction (Homo sapiens, Jurkat, 6 h) was no more than 0.01 µM. Further, at PD-1/PD-L1 PPI, the IC50 was no more than 0.01 µM.
The compound `COc1nc(-c2cccc(-c3cccc(NC(=O)c4ccnn(C)c4=O)c3C)c2Cl)cc2c1[C@@H](N1CC(C(=O)O)C1)CC2` (single isomer, unassigned) [Compound J-2] showed an EC50 in the assay with PD-1/PD-L1 interaction (Homo sapiens, Jurkat, 6 h) of no more than 0.01 µM. The compound also came in with a half-inhibitory concentration (IC50) at PD-1/PD-L1 PPI of no more than 0.01 µM.
For `COc1nc(-c2cccc(-c3cccc(NC(=O)c4cn(C)c(=O)n(C)c4=O)c3Cl)c2Cl)cc2c1[C@@H](N1CC(C(=O)O)C1)CC2` (single isomer, unassigned) [Compound J-3], the concentration for a half-maximal effect (EC50) in the assay on PD-1/PD-L1 interaction (Homo sapiens, Jurkat, 6 h) was no more than 0.01 µM. At PD-1/PD-L1 PPI, this compound registered an IC50 of no more than 0.01 µM.
As for `COc1nc(-c2cccc(-c3cccc(NC(=O)c4cn(C)c(=O)n(C)c4=O)c3Cl)c2Cl)cc2c1[C@H](N1CC(C(=O)O)C1)CC2` (single isomer, unassigned) [Compound J-4], the EC50 in the assay with PD-1/PD-L1 interaction (Homo sapiens, Jurkat, 6 h) lay in the range of 0.1 to 1 µM. In addition, the half-inhibitory concentration (IC50) at PD-1/PD-L1 PPI was no more than 0.01 µM.
Compound `COc1nc(-c2cccc(-c3cccc(NC(=O)c4cn(C)c(=O)n(C)c4=O)c3C)c2Cl)cc2c1C(NC[C@@H]1CCC(=O)N1)C(F)C2` (single isomer, unassigned) [Compound K-1a] displayed a 50% effective concentration (EC50) with PD-1/PD-L1 interaction of 0.01 to 0.1 µM. The compound further registered an IC50 at PD-1/PD-L1 PPI of no more than 0.01 µM.
Taken in the same sequence, the figures for `COc1nc(-c2cccc(-c3cccc(NC(=O)c4cn(C)c(=O)n(C)c4=O)c3C)c2Cl)cc2c1C(NC[C@@H]1CCC(=O)N1)C(F)C2` (single isomer, unassigned) [Compound K-1b] were 0.1 to 1 µM and no more than 0.01 µM.
`COc1nc(-c2cccc(-c3cccc(NC(=O)c4cn(C)c(=O)n(C)c4=O)c3C)c2Cl)cc2c1[C@@H](NC[C@@H]1CCC(=O)N1)CC2` [Compound A-2] registered an EC50 with PD-1/PD-L1 interaction (Homo sapiens, Jurkat, 6 h) of no more than 0.01 µM. Moreover, the IC50 at PD-1/PD-L1 PPI was no more than 0.01 µM.
As for `COc1nc(-c2cccc(-c3cccc(NC(=O)c4cn(C)c(=O)n(C)c4=O)c3F)c2Cl)cc2c1[C@@H](NC[C@@H]1CCC(=O)N1)CC2` [Compound A-3], in the assay on PD-1/PD-L1 interaction (Homo sapiens, Jurkat, 6 h), the EC50 is no more than 0.01 µM. The compound further displayed an IC50 at PD-1/PD-L1 PPI of no more than 0.01 µM.
As for `COc1nc(-c2cccc(-c3cccc(NC(=O)c4cn(C)c(=O)n(C)c4=O)c3Cl)c2C)cc2c1[C@@H](NC[C@@H]1CCC(=O)N1)CC2` [Compound A-4], the half-maximal effective concentration (EC50) with PD-1/PD-L1 interaction (Homo sapiens, Jurkat, 6 h) was no more than 0.01 µM. At PD-1/PD-L1 PPI, the IC50 was no more than 0.01 µM.
Compound `COc1nc(-c2cccc(-c3cccc(NC(=O)c4cn(C)c(=O)n(C)c4=O)c3C)c2C)cc2c1[C@@H](NC[C@@H]1CCC(=O)N1)CC2` [Compound A-5] displayed an EC50 in the assay on PD-1/PD-L1 interaction (Homo sapiens, Jurkat, 6 h) of no more than 0.01 µM. The same compound returned an IC50 at PD-1/PD-L1 PPI of no more than 0.01 µM.
In the assay on PD-1/PD-L1 interaction (Homo sapiens, Jurkat, 6 h), `COc1nc(-c2cccc(-c3cccc(NC(=O)c4cn(C)c(=O)n(C)c4=O)c3F)c2C)cc2c1[C@@H](NC[C@@H]1CCC(=O)N1)CC2` [Compound A-6] registered an EC50 of 0.01 to 0.1 µM. The compound further came in with an IC50 on PD-1/PD-L1 PPI of no more than 0.01 µM.
For `COc1nc(-c2cccc(-c3cccc(NC(=O)c4cn(C)c(=O)n(C)c4=O)c3Cl)c2F)cc2c1[C@@H](NC[C@@H]1CCC(=O)N1)CC2` [Compound A-7], in that order: no more than 0.01 µM and no more than 0.01 µM.
Taken in the same sequence, the figures for `COc1nc(-c2cccc(-c3cccc(NC(=O)c4cn(C)c(=O)n(C)c4=O)c3C)c2F)cc2c1[C@@H](NC[C@@H]1CCC(=O)N1)CC2` [Compound A-8] were no more than 0.01 µM and no more than 0.01 µM.
Taken in the same sequence, the figures for `COc1nc(-c2cccc(-c3cccc(NC(=O)c4cn(C)c(=O)n(C)c4=O)c3F)c2F)cc2c1[C@H](NC[C@@H]1CCC(=O)N1)CC2` [Compound A-17] were 0.1 to 1 µM and no more than 0.01 µM.
In the case of `COc1nc(-c2cccc(-c3cccc(NC(=O)c4ccnn(C)c4=O)c3Cl)c2Cl)cc2c1[C@@H](NC[C@@H]1CCC(=O)N1)CC2` [Compound A-43], in the assay with PD-1/PD-L1 interaction (Homo sapiens, Jurkat, 6 h), the 50% effective concentration (EC50) is no more than 0.01 µM. Further, the 50% inhibitory concentration (IC50) on PD-1/PD-L1 PPI is no more than 0.01 µM.
In the assay on PD-1/PD-L1 interaction (Homo sapiens, Jurkat, 6 h), `COc1nc(-c2cccc(-c3cccc(NC(=O)c4ccnn(C)c4=O)c3Cl)c2Cl)cc2c1[C@@H](NC[C@@H]1CCC(=O)N1)CO2` [Compound A-44] registered an EC50 of 0.01 to 0.1 µM. For the same compound, the IC50 on PD-1/PD-L1 PPI is no more than 0.01 µM.
For `COc1nc(-c2cccc(-c3cccc(NC(=O)c4ccnn(C)c4=O)c3C)c2F)cc2c1[C@@H](NC[C@@H]1CCC(=O)N1)CC2` [Compound A-45], in that order: 0.01 to 0.1 µM and no more than 0.01 µM.
On to `COc1nc(-c2cccc(-c3cccc(NC(=O)c4ccnn(C)c4=O)c3C)c2Cl)cc2c1[C@@H](NC[C@@H]1CCC(=O)N1)CO2` [Compound A-46], for which, in the assay with PD-1/PD-L1 interaction (Homo sapiens, Jurkat, 6 h), the EC50 was no more than 0.01 µM. For the same compound, on PD-1/PD-L1 PPI, the 50% inhibitory concentration (IC50) was no more than 0.01 µM.
On to `COc1nc(-c2cccc(-c3cccc(NC(=O)c4ccnn(C)c4=O)c3C)c2Cl)cc2c1[C@@H](NC[C@@H]1CCC(=O)N1)CC2` [Compound A-47], for which, in the assay with PD-1/PD-L1 interaction (Homo sapiens, Jurkat, 6 h), the EC50 is no more than 0.01 µM. This compound showed a half-maximal inhibitory concentration (IC50) on PD-1/PD-L1 PPI of no more than 0.01 µM.
Compound `COc1nc(-c2cccc(-c3cccc(NC(=O)c4ccn[nH]c4=O)c3Cl)c2Cl)cc2c1[C@@H](NC[C@@H]1CCC(=O)N1)CC2` [Compound A-51] returned a concentration giving a half-maximal response (EC50) in the assay on PD-1/PD-L1 interaction (Homo sapiens, Jurkat, 6 h) of no more than 0.01 µM. The IC50 on PD-1/PD-L1 PPI was no more than 0.01 µM.
As for `COc1nc(-c2cccc(-c3cccc(NC(=O)c4ccn[nH]c4=O)c3C)c2Cl)cc2c1[C@@H](NC[C@@H]1CCC(=O)N1)CC2` [Compound A-52], the EC50 in the assay with PD-1/PD-L1 interaction (Homo sapiens, Jurkat, 6 h) was in the range of 0.01 to 0.1 µM. The compound also had an IC50 at PD-1/PD-L1 PPI of no more than 0.01 µM.
